Each block holds one compound with its values, some of them ahead of it.
Assays:
[1] = cited from earlier work
[2] = Mouse study: body weight at necropsy; type: in vivo, mouse (BALB/cAnNCrl, male); conditions: SiO2 left flank, SiO2 with meloxicam right flank, s.c. 0.1 ml
Description: A mouse study was carried out using 15 animals from University of Turku, Central Animal Laboratory, Pharmacity breeding unity. All animals were BALB/cAnNCrl, male. The animals were acclimatised for 15 days. No period of isolation was needed. At the start of the study the animals were aged 10-13 weeks and weighed 28.9 g±1.38 g (min. 26.6 g, max 31.1 g).
Administration of the test items was carried out according to the study design set out in Table 3. The test item was administered by subcutaneous (back) injection using a syringe and an 18G needle at a dose volume of 0.1 ml/mouse.
Animals were weighed and euthanized (CO2) at the end of the experiment (Animals #1, 2, and 3 were not weighed). The injection sites were macroscopically observed and digital pictures from test items in soft tissue was taken at the each time point. The test item (gel) was removed from a soft tissue when possible.

[3] = Concentration of meloxicam in plasma of dogs after single subcutaneous silica hydrogel depot; type: in vivo; conditions: dog, sc, 3.16 mg meloxicam/kg bodyweight, single s.c. silica hydrogel depot
Description: Example 1 relates to animal studies carried out. […] The appropriate dose of TI was administered subcutaneously as a one off dose at the area behind the shoulder blade.

[4] = dogs, single oral administration; cited from earlier work
[5] = Animal 4, necropsy 7 days after injections
[6] = Animal 7, necropsy 14 days after injections
[7] = Animal 10, necropsy 28 days after injections

- concentration at 0 hours ([3]; Dog 1, 0.0 hours): 0 ng/mL
- concentration at 0.5 hours ([3]; Dog 1, 0.5 hours): 43.2 ng/mL
- concentration at 1 hours ([3]; Dog 1, 1.0 hours): 132 ng/mL
- concentration at 2 hours ([3]; Dog 1, 2.0 hours): 296 ng/mL
- concentration at 3 hours ([3]; Dog 1, 3.0 hours): 379 ng/mL
- concentration at 4 h ([3]; Dog 1, 4.0 hours): 402 ng/mL
- concentration at 6 h ([3]; Dog 1, 6.0 hours): 375 ng/mL
- concentration at 8 h ([3]; Dog 1, 8.0 hours): 294 ng/mL
- concentration at 12 h ([3]; Dog 1, 12.0 hours): 363 ng/mL
- concentration at 504 h ([3]; Dog 1, 504.0 hours): 4.3 ng/mL
- concentration at 576 h ([3]; Dog 1, 576.0 hours): 2.6 ng/mL
- concentration at 672 h ([3]; Dog 1, 672.0 hours): 1.5 ng/mL
- concentration at 840 hours ([3]; Dog 1, 840.0 hours): 1 ng/mL
- concentration at 1008 hours ([3]; Dog 1, 1008.0 hours): 0.9 ng/mL
- concentration at 1176 hours ([3]; Dog 1, 1176.0 hours): 0.5 ng/mL
- concentration at 1344 hours ([3]; Dog 1, 1344.0 hours): 0.4 ng/mL
- concentration at 0 hours ([3]; Dog 2, 0.0 hours): 0 ng/mL
- concentration at 0.5 hours ([3]; Dog 2, 0.5 hours): 27 ng/mL
- concentration at 1 hours ([3]; Dog 2, 1.0 hours): 76 ng/mL
- concentration at 2 hours ([3]; Dog 2, 2.0 hours): 153 ng/mL
- concentration at 3 hours ([3]; Dog 2, 3.0 hours): 227 ng/mL
- concentration at 4 h ([3]; Dog 2, 4.0 hours): 257 ng/mL
- concentration at 6 h ([3]; Dog 2, 6.0 hours): 349 ng/mL
- concentration at 8 h ([3]; Dog 2, 8.0 hours): 344 ng/mL
- concentration at 12 h ([3]; Dog 2, 12.0 hours): 447 ng/mL
- concentration at 504 h ([3]; Dog 2, 504.0 hours): 115 ng/mL
- concentration at 576 h ([3]; Dog 2, 576.0 hours): 101 ng/mL
- concentration at 672 hours ([3]; Dog 2, 672.0 hours): 67.3 ng/mL
- concentration at 840 hours ([3]; Dog 2, 840.0 hours): 40.1 ng/mL
- concentration at 1008 hours ([3]; Dog 2, 1008.0 hours): 17.9 ng/mL
- concentration at 1176 hours ([3]; Dog 2, 1176.0 hours): 5.6 ng/mL
- concentration at 1344 hours ([3]; Dog 2, 1344.0 hours): 2.6 ng/mL
- concentration at 0 hours ([3]; Dog 3, 0.0 hours): 0 ng/mL
- concentration at 0.5 hours ([3]; Dog 3, 0.5 hours): 27.1 ng/mL
- concentration at 1 hours ([3]; Dog 3, 1.0 hours): 93.9 ng/mL
- concentration at 2 hours ([3]; Dog 3, 2.0 hours): 215 ng/mL
- concentration at 3 hours ([3]; Dog 3, 3.0 hours): 301 ng/mL
- concentration at 4 h ([3]; Dog 3, 4.0 hours): 319 ng/mL
- concentration at 6 h ([3]; Dog 3, 6.0 hours): 359 ng/mL
- concentration at 8 h ([3]; Dog 3, 8.0 hours): 404 ng/mL
- concentration at 12 h ([3]; Dog 3, 12.0 hours): 559 ng/mL
- concentration at 504 h ([3]; Dog 3, 504.0 hours): 33.1 ng/mL
- concentration at 576 h ([3]; Dog 3, 576.0 hours): 16.6 ng/mL
- concentration at 672 hours ([3]; Dog 3, 672.0 hours): 11.6 ng/mL
- concentration at 840 hours ([3]; Dog 3, 840.0 hours): 6.5 ng/mL
- concentration at 1008 hours ([3]; Dog 3, 1008.0 hours): 5.6 ng/mL
- concentration at 1176 hours ([3]; Dog 3, 1176.0 hours): 3 ng/mL
- concentration at 1344 hours ([3]; Dog 3, 1344.0 hours): 2.4 ng/mL
Compound: Cc1cnc(NC(=O)C2=C(O)c3ccccc3S(=O)(=O)N2C)s1 [meloxicam]
- Solubility in methanol ([1]; methanol): very slightly soluble
- Solubility in strong acids and bases ([1]; strong acids and bases, compared with water): higher solubility
- Solubility in water [1]: practically insoluble in water
- Weight at necropsy [2, 5]: 27.3 g
- Weight gain [2, 5]: -0.7 g
- Weight at necropsy [2, 6]: 29.0 g
- Weight gain [2, 6]: 0.0 g
- Weight at necropsy [2, 7]: 32.7 g
- Weight gain [2, 7]: 1.6 g

Compound: CC(C(=O)O)c1ccc2c(c1)[nH]c1ccc(Cl)cc12 (centres unmarked) [carprofen]
- Solubility in water [1]: practically insoluble in water

Compound: NS(=O)(=O)c1ccc(-n2nc(C(F)(F)F)cc2-c2ccc(F)cc2)cc1 [Mavacoxib]
- Time a therapeutic level is maintained [4]: one month
